Consider three compounds from patent publication US20230247994A1, “HETEROCYCLENE DERIVATIVES AS PEST CONTROL AGENTS” (Bayer Aktiengesellschaft, priority 2020, published 2023).

Common to all, as to format: in vivo
The subject of assay [1] is Nilaparvata lugens. In words: Nilaparvata lugens test (rice plants). The following applies: application rate 500 g/ha, spray, after 4 days, 100% = all planthoppers killed. The text has this: Nilaparvata lugens Test Solvent: 78.0 parts by weight of acetone • • 1.5 parts by weight of dimethylformamide Emulsifier: alkylaryl polyglycol ether An appropriate active ingredient formulation is produced by dissolving 1 part by weight of active ingredient with the stated parts by weight of solvent and making the solution up to the desired concentration with water containing an emulsifier concentration of 1000 ppm. Further test concentrations are produced by diluting the formulation with emulsifier-containing water. Rice plants (Oryza sativa) are sprayed with the active ingredient formulation of the desired concentration and then infected with the brown planthopper (Nilaparvata lugens). After 4 days, efficacy in % is determined. 100% means that all of the planthoppers have been killed; 0% means that none of the planthoppers have been killed.

Assay [2] has as its system Spodoptera frugiperda. Briefly: Spodoptera frugiperda spray test (maize leaf disks). As to conditions: foliar, 168 h, caterpillars, after 7 days, 100% = all caterpillars killed, read-out: efficacy in %; for pest or weed control at 100 g/ha: application rate 100 g/ha. The text has this: Spodoptera frugiuerda—Spray Test
Solvent: 78.0 parts by weight of acetone • • 1.5 parts by weight of dimethylformamide
Emulsifier: alkylaryl polyglycol ether
An appropriate active ingredient formulation is produced by dissolving 1 part by weight of active ingredient with the stated parts by weight of solvent and making the solution up to the desired concentration with water containing an emulsifier concentration of 1000 ppm. Further test concentrations are produced by diluting the formulation with emulsifier-containing water.
Leaf disks of maize (Zea mays) are sprayed with an active ingredient formulation of the desired concentration and, after drying, populated with caterpillars of the fall armyworm (Spodopterafrugiperda).
After 7 days, efficacy in % is determined. 100% means that all of the caterpillars have been killed; 0% means that none of the caterpillars have been killed.

The subject of assay [3] is Nezara viridula. In words: Nezara viridula spray test (barley plants). As to conditions: 96 h, application rate 500 g/ha, larvae, after 4 days, 100% = all shield bugs killed, read-out: efficacy in %. The source says: Nezara viridula—Spray Test Solvent: 78.0 parts by weight of acetone • • 1.5 parts by weight of dimethylformamide Emulsifier: alkylaryl polyglycol ether An appropriate active ingredient formulation is produced by dissolving 1 part by weight of active ingredient with the stated parts by weight of solvent and making the solution up to the desired concentration with water containing an emulsifier concentration of 1000 ppm. Further test concentrations are produced by diluting the formulation with emulsifier-containing water. Barley plants (Hordeum vulgare) are sprayed with an active ingredient formulation of the desired concentration and are infected with larvae of the Southern green shield bug (Nezara viridula). After 4 days, efficacy in % is determined. 100% means that all of the shield bugs have been killed; 0% means that none of the shield bugs have been killed.

The test system of assay [4] is Diabrotica balteata. In words: Diabrotica balteata spray test (germinated wheat grains). As to conditions: 168 h, application rate 100 g/ha (=32 μg/cavity), after 7 days, beetle larvae on wheat, 100% = all wheat plants grown as in untreated, uninfected control, read-out: efficacy in %. The text has this: Diabrotica Balteata—Spray Test Solvent: 78 parts by weight of acetone • • 1.5 parts by weight of dimethylformamide Emulsifier: alkylaryl polyglycol ether An appropriate active ingredient formulation is produced by dissolving 1 part by weight of active ingredient with the stated parts by weight of solvent and making the solution up to the desired concentration with water containing an emulsifier concentration of 1000 ppm. Further test concentrations are produced by diluting the formulation with emulsifier-containing water. Pre-swollen wheat grains (Triticum aestivum) are incubated in a multiwell plate filled with agar and a little water for one day (5 seed grains per cavity). The germinated wheat grains are sprayed with an active ingredient formulation of the desired concentration. Subsequently, each cavity is infected with 10-20 beetle larvae of Diabrotica balteata. After 7 days, efficacy in % is determined. 100% means that all wheat plants have grown as in the untreated, uninfected control; 0% means that no wheat plant has grown.

For assay [5], the system named is Myzus persicae. In words: Myzus persicae oral test. As to conditions: application rate 20 ppm, after 5 days, 100% = all aphids killed. As for the experimental part:
Myzus persicae—Oral Test Solvent: 100 parts by weight of acetone An appropriate active ingredient formulation is produced by dissolving 1 part by weight of active ingredient with the specified parts by weight of solvent and making the solution up to the desired concentration with water. 50 μl of the active ingredient formulation is transferred into microtiter plates and made up to a final volume of 200 μl with 150 μl of IPL41 insect medium (33%+15% sugar). Subsequently, the plates are sealed with parafilm, which a mixed population of green peach aphids (Myzus persicae) within a second microtiter plate is able to puncture and imbibe the solution. After 5 days, efficacy in % is determined. 100% means that all of the aphids have been killed; 0% means that none of the aphids have been killed.

Assay [6] relates to Meloidogyne incognita. Briefly: Meloidogyne incognita test (lettuce, gall formation). The following applies: application rate 20 ppm, after 14 days, 100% = no galls found. The text has this:
Meloidogyne Incognita Test Solvent: 125.0 parts by weight of acetone An appropriate active ingredient formulation is produced by mixing 1 part by weight of active ingredient with the stated amount of solvent and diluting the concentrate to the desired concentration with water. Vessels are filled with sand, active ingredient solution, an egg/larvae suspension of the southern root-knot nematode (Meloidogyne incognita) and lettuce seeds. The lettuce seeds germinate and the plants develop. The galls develop on the roots. After 14 days, the nematicidal efficacy in % is determined by the formation of galls. 100% means that no galls were found; 0% means that the number of galls on the treated plants corresponds to the untreated control.

Assay [7] has as its system Myzus persicae. Briefly: Myzus persicae spray test (bell pepper plants). The following applies: application rate 20 ppm, after 6 days, 100% = all aphids killed. The text has this: Myzus persicae—spray test Solvent: 14 parts by weight of dimethylformamide Emulsifier: alkylaryl polyglycol ether An appropriate active ingredient formulation is produced by dissolving 1 part by weight of active ingredient with the stated parts by weight of solvent and making the solution up to the desired concentration with water containing an emulsifier concentration of 1000 ppm. Further test concentrations are produced by diluting the formulation with emulsifier-containing water. If the addition of ammonium salts or/and penetration enhancers is required, these are each added in a concentration of 1000 ppm to the formulation solution. Bell pepper plants (Capsicum annuum) severely infested with the green peach aphid (Myzus persicae) are treated by spraying with the active ingredient formulation in the desired concentration. After 6 days, the kill in % is determined. 100% means that all of the aphids have been killed; 0% means that none of the aphids have been killed.

Turning to `CCS(=O)(=O)c1c(-c2nc3cc4c(cc3n2C)OC(F)(F)C(F)(F)O4)nc(-c2cccc(Cl)n2)n1C` [Example I-21, 2-[2-(6-Chloropyridin-2-yl)-5-(ethylsulfonyl)-1-methyl-1H-imidazol-4-yl]-6,6,7,7-tetrafluoro-1-methyl-6,7-dihydro-1H-[1,4]dioxino[2,3-f]benzimidazole], in assay [1], the efficacy in % is 90%. The pest or weed control at 100 g/ha in assay [2] and in assay [4] was 100% each time. Moreover, in assay [3], the pest or weed control at 500 g/ha stood at 100%.
For the compound `CCS(=O)(=O)c1c(-c2nc3cc4c(cc3[nH]2)OC(F)(F)C(F)(F)O4)nc(C2CC2)n1C` [Example I-8, 2-[2-Cyclopropyl-5-(ethylsulfonyl)-1-methyl-1H-imidazol-4-yl]-6,6,7,7-tetrafluoro-6,7-dihydro-1H-[1,4]dioxino[2,3-f]benzimidazole], in assay [2] (application rate 500 g/ha), the pest or weed control at 500 g/ha amounted to 100%. This compound also gave an efficacy in % in assay [5] of 100%. Also, the “nematicidal efficacy in % (formation of galls)” value in assay [6] worked out at 90%. The pest or weed control at 100 g/ha in assay [4] came to 100%.
Consider `CCS(=O)(=O)c1c(-c2nc3cc4c(cc3n2C)OC(F)(F)C(F)(F)O4)nc(C2CC2)n1C` [Example I-9, 2-[2-Cyclopropyl-5-(ethylsulfonyl)-1-methyl-1H-imidazol-4-yl]-6,6,7,7-tetrafluoro-1-methyl-6,7-dihydro-1H-[1,4]dioxino[2,3-f]benzimidazole], for which the pest or weed control at 100 g/ha is 83% in assay [2] and 100% in assay [4]. For the same compound, the “kill in % (efficacy)” value in assay [7] is listed as 99%.
